System: Subjects With Active Crohn's Disease With Evidence of Mucosal Ulceration
Assay: Study 3 - Creatinine levels
Assay type: in vivo, human
Settings: for Study 3 - Creatinine Mean CFB / Study 3 - Creatinine Mean percentage CFB: 10 weeks results, 200 mg q.d.
Source text: Double-Blind, Randomized, Placebo-Controlled, Multi-Centre Study to Investigate the Efficacy and Safety of Compound 1 in Subjects With Active Crohn's Disease With Evidence of Mucosal Ulceration. This is a double-blind, randomized, placebo-controlled, multi-centre Phase 2 study to investigate the efficacy and safety of Compound 1 administered once daily for the treatment of active CD with evidence of mucosal ulceration. The pharmacokinetics (including a PK substudy) and pharmacodynamics of Compound 1 and metabolite in CD will also be characterised. A total of 180 eligible subjects will be randomized to receive Compound 1 or placebo in addition to their stable background treatment (eg, corticosteroids, aminosalicylates, or CD-related antibiotics). The study will consist of 2 parts, with total treatment duration of 20 weeks. Randomization in Part 1 will be stratified according the subject's previous anti-TNF exposure/response, CRP level at Screening, and oral corticosteroid use at visit Day −1. After the first 10 weeks of treatment in Part 1, patients will be re-randomized for Part 2 as shown in the diagram below and will be stratified according to the subject's clinical response, previous anti-TNF exposure/response, and oral corticosteroid use at visit Day -1. [table] Creatinine levels determination is available at Quest Diagnostics, Clinical Trials, Quest House, 125-135 Staines Road, Hounslow, Middlesex, TW3 3JB, United Kingdom under Catalogue n# 82565. For Study 3, the data are obtained at BARC Europe, 3B,Industrie Park, Zwijnaarde, B-9052 Ghent, Belgium. The Enzymatic method is based on the determination of sarcosine after conversion of creatinine with the aid of creatininase, creatinase, and sarcosine oxidase. The liberated hydrogen peroxide reacts with 4-aminophenazone and HTIB to form a quinone imine chromogen. The reaction is catalyzed by peroxidase. The color intensity is directly proportional to concentration of creatinine present and can be measured photometrically.

[1] = 200 mg q.d. continued to week 20 (N = 77), week 0
[2] = 200 mg q.d. continued to week 20 (N = 77), week 2
[3] = 200 mg q.d. continued to week 20 (N = 77), week 4
[4] = 200 mg q.d. continued to week 20 (N = 77), week 6
[5] = 200 mg q.d. continued to week 20 (N = 77), week 10
[6] = 200 mg q.d. continued to week 20 (N = 77), week 12
[7] = 200 mg q.d. continued to week 20 (N = 77), week 16
[8] = 200 mg q.d. continued to week 20 (N = 77), week 20
[9] = 200 mg q.d. week 0 to 10, to 100 mg q.d. week 10 to 20 (N = 30), week 0
[10] = 200 mg q.d. week 0 to 10, to 100 mg q.d. week 10 to 20 (N = 30), week 2
[11] = 200 mg q.d. week 0 to 10, to 100 mg q.d. week 10 to 20 (N = 30), week 4
[12] = 200 mg q.d. week 0 to 10, to 100 mg q.d. week 10 to 20 (N = 30), week 6
[13] = 200 mg q.d. week 0 to 10, to 100 mg q.d. week 10 to 20 (N = 30), week 10
[14] = 200 mg q.d. week 0 to 10, to 100 mg q.d. week 10 to 20 (N = 30), week 12
[15] = 200 mg q.d. week 0 to 10, to 100 mg q.d. week 10 to 20 (N = 30), week 16
[16] = 200 mg q.d. week 0 to 10, to 100 mg q.d. week 10 to 20 (N = 30), week 20
[17] = 200 mg q.d. week 0 to 10, to placebo week 10 to 20 (N = 23), week 0
[18] = 200 mg q.d. week 0 to 10, to placebo week 10 to 20 (N = 23), week 2
[19] = 200 mg q.d. week 0 to 10, to placebo week 10 to 20 (N = 23), week 4
[20] = 200 mg q.d. week 0 to 10, to placebo week 10 to 20 (N = 23), week 6
[21] = 200 mg q.d. week 0 to 10, to placebo week 10 to 20 (N = 23), week 10
[22] = 200 mg q.d. week 0 to 10, to placebo week 10 to 20 (N = 23), week 12
[23] = 200 mg q.d. week 0 to 10, to placebo week 10 to 20 (N = 23), week 16
[24] = 200 mg q.d. week 0 to 10, to placebo week 10 to 20 (N = 23), week 20
[25] = placebo week 0 to 10, to 100 mg q.d. week 10 to 20 (N = 22), week 12
[26] = placebo week 0 to 10, to 100 mg q.d. week 10 to 20 (N = 22), week 16
[27] = placebo week 0 to 10, to 100 mg q.d. week 10 to 20 (N = 22), week 20

O=C(Nc1nc2cccc(-c3ccc(CN4CCS(=O)(=O)CC4)cc3)n2n1)C1CC1 [Compound 1, cyclopropanecarboxylic acid {5-[4-(1,1-dioxo-thiomorpholin-4-ylmethyl)-phenyl]-[1,2,4]triazolo[1,5-a]pyridin-2-yl}-amide]
Creatinine Mean CFB [1]: 0.0 µmol/L | Creatinine Mean percentage CFB [1]: 0.0% | Creatinine Mean CFB [2]: 2.22 µmol/L | Creatinine Mean percentage CFB [2]: 4.13% | Creatinine Mean CFB [3]: 3.93 µmol/L | Creatinine Mean percentage CFB [3]: 6.08% | Creatinine Mean CFB [4]: 2.51 µmol/L | Creatinine Mean percentage CFB [4]: 4.44% | Creatinine Mean CFB [5]: 6.00 µmol/L | Creatinine Mean percentage CFB [5]: 9.34% | Creatinine Mean CFB [6]: 4.02 µmol/L | Creatinine Mean percentage CFB [6]: 7.10% | Creatinine Mean CFB [7]: 1.81 µmol/L | Creatinine Mean percentage CFB [7]: 3.62% | Creatinine Mean CFB [8]: 3.20 µmol/L | Creatinine Mean percentage CFB [8]: 5.43% | Creatinine Mean CFB [9]: 0.0 µmol/L | Creatinine Mean percentage CFB [9]: 0.0% | Creatinine Mean CFB [10]: 3.36 µmol/L | Creatinine Mean percentage CFB [10]: 5.77% | Creatinine Mean CFB [11]: 4.98 µmol/L | Creatinine Mean percentage CFB [11]: 8.03% | Creatinine Mean CFB [12]: 4.00 µmol/L | Creatinine Mean percentage CFB [12]: 6.37% | Creatinine Mean CFB [13]: 6.48 µmol/L | Creatinine Mean percentage CFB [13]: 11.55% | Creatinine Mean CFB [14]: 2.92 µmol/L | Creatinine Mean percentage CFB [14]: 6.01% | Creatinine Mean CFB [15]: 4.89 µmol/L | Creatinine Mean percentage CFB [15]: 8.86% | Creatinine Mean CFB [16]: 3.43 µmol/L | Creatinine Mean percentage CFB [16]: 6.19% | Creatinine Mean CFB [17]: 0.0 µmol/L | Creatinine Mean percentage CFB [17]: 0.0% | Creatinine Mean CFB [18]: 1.95 µmol/L | Creatinine Mean percentage CFB [18]: 3.55% | Creatinine Mean CFB [19]: 3.83 µmol/L | Creatinine Mean percentage CFB [19]: 6.09% | Creatinine Mean CFB [20]: 2.15 µmol/L | Creatinine Mean percentage CFB [20]: 3.92% | Creatinine Mean CFB [21]: 5.88 µmol/L | Creatinine Mean percentage CFB [21]: 10.23% | Creatinine Mean CFB [22]: 1.84 µmol/L | Creatinine Mean percentage CFB [22]: 3.14% | Creatinine Mean CFB [23]: 0.47 µmol/L | Creatinine Mean percentage CFB [23]: 1.93% | Creatinine Mean CFB [24]: -0.26 µmol/L | Creatinine Mean percentage CFB [24]: 0.68% | Study 3 - Creatinine Mean CFB (week 2): 2.44 µM | Study 3 - Creatinine Mean percentage CFB (week 2): 4.41% | Study 3 - Creatinine Mean CFB (week 4): 4.16 µM | Study 3 - Creatinine Mean percentage CFB (week 4): 6.55% | Study 3 - Creatinine Mean CFB (week 6): 2.81 µM | Study 3 - Creatinine Mean percentage CFB (week 6): 4.82% | Study 3 - Creatinine Mean CFB (week 10): 6.08 µM | Study 3 - Creatinine Mean percentage CFB (week 10): 10.05% | Creatinine Mean CFB [25]: 3.09 µmol/L | Creatinine Mean percentage CFB [25]: 4.87% | Creatinine Mean CFB [26]: 4.33 µmol/L | Creatinine Mean percentage CFB [26]: 6.52% | Creatinine Mean CFB [27]: 3.11 µmol/L | Creatinine Mean percentage CFB [27]: 4.31%

Source: patent US20180200257A1, “METHODS FOR THE TREATMENT OF INFLAMMATORY DISORDERS” (Galapagos NV, priority 2015, published 2018)
